Toxic doses and inconclusive results are not listed. Rule for the calls: active = survival T/C of 150% or more; inactive = T/C below 125% in these data.
Tested on: CD2F1 mice, L1210 leukemia ip, survival T/C
Test: NCI In Vivo Anticancer Drug Screen. Data for tumor model L1210 Leukemia (intraperitoneal) in CD2F1 (CDF1) mice
Conditions: higher = longer survival
In short: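 Antitumor effect is scored in animals hosting a serially transplanted tumor. Values compare compound-dosed animals against vehicle-only controls as a simple quotient.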

[1] = endpoint: mean survival time, dose: 100.0 mg/kg/injection, schedule: Q04DX003 (ip), vehicle: saline with Tween-80
[2] = endpoint: mean survival time, dose: 200.0 mg/kg/injection, schedule: Q04DX003 (ip), vehicle: saline with Tween-80
[3] = endpoint: mean survival time, dose: 400.0 mg/kg/injection, schedule: Q04DX003 (ip), vehicle: saline with Tween-80
[4] = endpoint: mean survival time, dose: 100.0 mg/kg/injection, schedule: Q01DX001 (ip), vehicle: saline with Tween-80
[5] = endpoint: mean survival time, dose: 100.0 mg/kg/injection, schedule: Q01DX009 (ip), vehicle: saline with Tween-80
[6] = endpoint: mean survival time, dose: 200.0 mg/kg/injection, schedule: Q01DX009 (ip), vehicle: saline with Tween-80
[7] = endpoint: mean survival time, dose: 400.0 mg/kg/injection, schedule: Q01DX009 (ip), vehicle: saline with Tween-80

Measured: T/C

[CH3][Sn]([CH3])([CH3])[CH2]CCBr
inactive: endpoint: mean survival time, dose: 0.39 mg/kg/injection, schedule: Q01DX009 (ip), vehicle: saline 107 % of control | endpoint: mean survival time, dose: 0.78 mg/kg/injection, schedule: Q01DX009 (ip), vehicle: saline 107 % of control | endpoint: mean survival time, dose: 50.0 mg/kg/injection, schedule: Q01DX009 (ip), vehicle: saline 89 % of control

CNCC(=O)NC(CO)C(=O)NC(CO)C(=O)NC1C(C(N)=O)OC(n2ccc(N)nc2=O)C(O)C1O (stereo not given)
inactive: endpoint: mean survival time, dose: 0.19 mg/kg/injection, schedule: Q01DX005 (ip), vehicle: water 98 % of control | endpoint: mean survival time, dose: 0.38 mg/kg/injection, schedule: Q01DX005 (ip), vehicle: water 104 % of control | endpoint: mean survival time, dose: 0.75 mg/kg/injection, schedule: Q01DX005 (ip), vehicle: water 98 % of control

CN(C)C=Nc1cnc2ccccc2c1
inactive: [1] 95 % of control | [2] 95 % of control | [3] 96 % of control

O=[P+](O)O[P+](=O)O.O=[P+](O)O[P+](=O)O.O=[P+](O)O[P+](=O)O.O=[P+](O)O[P+](=O)O.[Cl][Pt].[Cl][Pt]
inactive: endpoint: median survival time, dose: 3.12 mg/kg/injection, schedule: Q04DX003 (ip), vehicle: saline 102 % of control | endpoint: median survival time, dose: 6.25 mg/kg/injection, schedule: Q04DX003 (ip), vehicle: saline 96 % of control | endpoint: median survival time, dose: 12.5 mg/kg/injection, schedule: Q04DX003 (ip), vehicle: saline 95 % of control | endpoint: median survival time, dose: 25.0 mg/kg/injection, schedule: Q04DX003 (ip), vehicle: saline 97 % of control | endpoint: median survival time, dose: 50.0 mg/kg/injection, schedule: Q04DX003 (ip), vehicle: saline 104 % of control

CC(=O)OCC1OC([n+]2c([O-])cc(=O)n3ccsc32)C(OC(C)=O)C1OC(C)=O (stereo not given)
inactive: endpoint: median survival time, dose: 11.25 mg/kg/injection, schedule: Q01DX005 (ip), vehicle: water 101 % of control | endpoint: median survival time, dose: 12.5 mg/kg/injection, schedule: Q01DX005 (ip), vehicle: distilled water + Tween-80 103 % of control | endpoint: median survival time, dose: 22.5 mg/kg/injection, schedule: Q01DX005 (ip), vehicle: water 100 % of control | endpoint: median survival time, dose: 25.0 mg/kg/injection, schedule: Q01DX005 (ip), vehicle: distilled water + Tween-80 98 % of control | endpoint: median survival time, dose: 45.0 mg/kg/injection, schedule: Q01DX005 (ip), vehicle: water 108 % of control | endpoint: median survival time, dose: 50.0 mg/kg/injection, schedule: Q01DX005 (ip), vehicle: distilled water + Tween-80 98 % of control | endpoint: median survival time, dose: 90.0 mg/kg/injection, schedule: Q01DX005 (ip), vehicle: water 114 % of control | endpoint: median survival time, dose: 100.0 mg/kg/injection, schedule: Q01DX005 (ip), vehicle: distilled water + Tween-80 102 % of control | endpoint: median survival time, dose: 180.0 mg/kg/injection, schedule: Q01DX005 (ip), vehicle: water 101 % of control | endpoint: median survival time, dose: 200.0 mg/kg/injection, schedule: Q01DX005 (ip), vehicle: distilled water + Tween-80 95 % of control

CC1NC=NC1C(c1ccccc1)c1ccccc1 (stereo not given)
inactive: endpoint: mean survival time, dose: 25.0 mg/kg/injection, schedule: Q04DX003 (ip), vehicle: saline with Tween-80 102 % of control | endpoint: mean survival time, dose: 50.0 mg/kg/injection, schedule: Q04DX003 (ip), vehicle: saline with Tween-80 109 % of control | [1] 101 % of control

CN(C)C(=O)Oc1cccc(NC(=O)Nc2cccc(OC(=O)N(C)C)c2)c1
inactive: [4] 105 % of control | endpoint: mean survival time, dose: 200.0 mg/kg/injection, schedule: Q01DX001 (ip), vehicle: saline with Tween-80 98 % of control | endpoint: mean survival time, dose: 400.0 mg/kg/injection, schedule: Q01DX001 (ip), vehicle: saline with Tween-80 97 % of control

C/C(=C/Cc1c(O)c(C)c2c(c1O)C(=O)OC2)CCC(=O)NCCc1ccccc1
inactive: endpoint: mean survival time, dose: 100.0 mg/kg/injection, schedule: Q04DX002 (ip), vehicle: saline with Tween-80 87 % of control | endpoint: mean survival time, dose: 200.0 mg/kg/injection, schedule: Q04DX002 (ip), vehicle: saline with Tween-80 87 % of control | endpoint: mean survival time, dose: 400.0 mg/kg/injection, schedule: Q04DX002 (ip), vehicle: saline with Tween-80 96 % of control

NC(=O)C(NCCn1cnc2c(N)ncnc21)C(N)=O
inactive: endpoint: mean survival time, dose: 1.25 mg/kg/injection, schedule: Q01DX005 (ip), vehicle: water 92 % of control | endpoint: mean survival time, dose: 2.5 mg/kg/injection, schedule: Q01DX005 (ip), vehicle: water 92 % of control | endpoint: mean survival time, dose: 5.0 mg/kg/injection, schedule: Q01DX005 (ip), vehicle: water 92 % of control | endpoint: mean survival time, dose: 10.0 mg/kg/injection, schedule: Q01DX005 (ip), vehicle: water 95 % of control | endpoint: mean survival time, dose: 20.0 mg/kg/injection, schedule: Q01DX005 (ip), vehicle: water 95 % of control

CCCC(C)C1C(=O)N(C)C(=O)N(C)C1=O (stereo not given)
inactive: endpoint: mean survival time, dose: 75.0 mg/kg/injection, schedule: Q01DX001 (ip), vehicle: saline 104 % of control | endpoint: mean survival time, dose: 150.0 mg/kg/injection, schedule: Q01DX001 (ip), vehicle: saline 103 % of control | endpoint: mean survival time, dose: 300.0 mg/kg/injection, schedule: Q01DX001 (ip), vehicle: saline 98 % of control

Cc1ccccc1NC(=S)Nc1ccccn1
inactive: [5] 95 % of control | [6] 98 % of control | [7] 93 % of control

Clc1ccc(C(=Cc2ccccc2)c2ccc(Cl)cc2)cc1
inactive: [5] 102 % of control | [1] 90 % of control | [6] 93 % of control | [2] 93 % of control | [7] 96 % of control | [3] 97 % of control

C1CCC(CCC2CCCC[N-]2)[N-]C1.[I][Zn][I] (stereo not given)
inactive: endpoint: mean survival time, dose: 25.0 mg/kg/injection, schedule: Q01DX001 (ip), vehicle: saline with Tween-80 107 % of control | endpoint: mean survival time, dose: 50.0 mg/kg/injection, schedule: Q01DX001 (ip), vehicle: saline with Tween-80 86 % of control | [4] 86 % of control | endpoint: mean survival time, dose: 100.0 mg/kg/injection, schedule: Q01DX001 (ip), vehicle: saline 103 % of control | endpoint: mean survival time, dose: 200.0 mg/kg/injection, schedule: Q01DX001 (ip), vehicle: saline 100 % of control

CCCC(=O)Nc1ccc(O)cc1
inactive: endpoint: mean survival time, dose: 50.0 mg/kg/injection, schedule: Q01DX009 (ip), vehicle: Klucel (hydroxypropylcellulose) (HPC) 95 % of control | endpoint: mean survival time, dose: 100.0 mg/kg/injection, schedule: Q01DX009 (ip), vehicle: Klucel (hydroxypropylcellulose) (HPC) 91 % of control | endpoint: mean survival time, dose: 200.0 mg/kg/injection, schedule: Q01DX009 (ip), vehicle: Klucel (hydroxypropylcellulose) (HPC) 104 % of control | endpoint: mean survival time, dose: 400.0 mg/kg/injection, schedule: Q01DX009 (ip), vehicle: Klucel (hydroxypropylcellulose) (HPC) 123 % of control

CC1(C)CC(=O)C2(C)C(C1O)C2C1C2C(O)C(C)(C)CC(=O)C21C (stereo not given)
inactive: endpoint: mean survival time, dose: 75.0 mg/kg/injection, schedule: Q01DX001 (ip), vehicle: other 96 % of control | endpoint: mean survival time, dose: 150.0 mg/kg/injection, schedule: Q01DX001 (ip), vehicle: other 94 % of control | endpoint: mean survival time, dose: 300.0 mg/kg/injection, schedule: Q01DX001 (ip), vehicle: other 91 % of control

CCCCCCCCCCOC(=O)COc1ccc(C(C)(C)C)cc1
inactive: endpoint: mean survival time, dose: 12.5 mg/kg/injection, schedule: Q01DX009 (ip), vehicle: saline with Tween-80 106 % of control | endpoint: mean survival time, dose: 25.0 mg/kg/injection, schedule: Q01DX009 (ip), vehicle: saline with Tween-80 97 % of control | endpoint: mean survival time, dose: 50.0 mg/kg/injection, schedule: Q01DX009 (ip), vehicle: saline with Tween-80 97 % of control

CNc1nc(N)nc2nonc12
inactive: endpoint: mean survival time, dose: 12.5 mg/kg/injection, schedule: Q01DX005 (ip), vehicle: other 98 % of control | endpoint: mean survival time, dose: 25.0 mg/kg/injection, schedule: Q01DX005 (ip), vehicle: other 98 % of control | endpoint: mean survival time, dose: 50.0 mg/kg/injection, schedule: Q01DX005 (ip), vehicle: other 95 % of control | endpoint: mean survival time, dose: 100.0 mg/kg/injection, schedule: Q01DX005 (ip), vehicle: other 86 % of control | endpoint: mean survival time, dose: 200.0 mg/kg/injection, schedule: Q01DX005 (ip), vehicle: other 89 % of control

— PubChem BioAssay AID256 (DTP/NCI, 2004)
